Data reported in US4193997A, “Thieno[2,3-c] and [3,2-c]pyridines, process for their preparation and therapeutic applications thereof” (Parcor, priority 1977, dated 1980).

Key:
mice = experiment: Antalgic action, acetic acid method according to Koster, Anderson & de Beer; format: in vivo; settings: 100 mg/kg oral, 30 minutes prior to i.p. acetic acid
Excerpt: (b) Acetic acid method, according to Koster, Anderson & de Beer (Fed. Proced., 18, 1959, 412, 1, 626)
Intraperitoneal injection of a dilute acetic acid solution induces, in mice, characteristic writhing movements which are repeated due to the effect of pain.

[1] = test system: collagen-induced blood-platelet aggregation; experiment: Collagen-induced blood-platelet aggregation after oral treatment of rats; format: in vivo, Wistar rats; settings: Rattus norvegicus, 100 mg/kg oral, 3 hrs after treatment, collagen (bovine tendon extract), read-out: Percent inhibition of blood-platelet aggregation, Collagen
Protocol: (§1) Blood is taken from the jugular vein of Wistar rats. From this citrated blood, and after centrifugation, a plasma containing 600,000±20,000 blood-platelets per mm 3 is reconstituted, which plasma is used in all aggregation determinations.
(§2) 0.4 ml plasma is placed in a siliconized tube provided with a magnet bar which is also siliconized. The tube is introduced into an aggregometer connected to an apparatus which records the optical density variations. When light transmission reaches a stable value, 0.5 ml of a solution containing 10 μM A.D.P. (adenosine diphosphate) is introduced into the tube.
The A.D.P. solution is substituted with a collagen solution (bovine tendon extract).
(§3) Different groups of 20 rats each are used. Each group is orally administered a test derivative, at a dosage of 100 mg/kg. The results obtained during both tests are reported in following Table I which indicates the percent inhibition of blood-platelet aggregation obtained with respect to the reference group, 3 hrs after treatment.

[2] = test system: A.D.P.-induced blood-platelet aggregation; experiment: A.D.P.-induced blood-platelet aggregation after oral treatment of rats; format: in vivo, Wistar rats; settings: Rattus norvegicus, 100 mg/kg oral, 3 hrs after treatment, 10 μM A.D.P. solution, read-out: Percent inhibition of blood-platelet aggregation, A.D.P.
Protocol: as §1, §2
Blood-platelet aggregation then induces an increase of light transmission, followed by a decrease subsequent to the disaggregation stage.
The maximal optical density variation thus determined characterizes the extent of the aggregation.
as §3

mouse = experiment: Antalgic action, mechanical stimulation method according to Haffner; format: in vivo; settings: 100 mg/kg oral
Protocol: (a) Mechanical stimulation method according to Haffner (Deutsch. Wish., 1959, 55, 731-733). This method comprises placing a pressure forceps at the base of the tail of a mouse and recording the number of bites self-inflicted by the animal in its endeavour to remove the forceps. The decrease of the number of bites prior and subsequent to oral administration of the test compound at a dosage of 100 mg/kg provides a measure of the antalgic activity of the derivatives of this invention.

Red blood cells [3] = experiment: Anti-sludge in vitro, "curative" procedure (protamine sulfate agglomeration of red blood cells); format: cell-based, rats; settings: 25 μg; for percent aggregates, size of agglomerates 4: reference tests 11; for percent aggregates, size of agglomerates 3: reference tests 15 or 16; for percent aggregates, size of agglomerates 2: reference tests 19; for percent aggregates, size of agglomerates 1: reference tests 33 (n°3, 4, 6) or 30 (n°11, 12, 17)
Protocol: (§4) Red blood cells of rats are washed three times and diluted to 1/250 concentration in physiological saline. In each of 5 tubes are placed 0.6 ml of this suspension and 0.2 ml physiological saline. Into each tube is then added, respectively, an amount of 0, 25, 50, 100 and 200 μg of the test derivative contained in 0.2 ml of solution. After incubation for one hour at 37° C., 0.2 ml of a solution containing 125 μg/ml protamine sulfate is added thereto, and the resulting material is further incubated for 0.5 hour at 37° C. The red blood cells of each tube are then examined with a Mallasez cell, and the percent free red blood cells (RBC) and the percent agglomerates formed by 2, 3, 4, 5 . . . RBC are noted.
The test was repeated according to a "curative" procedure. The red blood cells were first contacted with the protamine sulfate and, after incubation for 0.5 hour, 0.2 ml containing 25 μg of the test derivative were added thereto, after which the material was further incubated for one hour at 37° C.

[4] = test system: ovalbumin-induced systemic edema; experiment: Ovalbumin-induced systemic edema method; format: in vivo; settings: rats, 100 mg/kg oral one hour before and with ovalbumin
Protocol: Rats are administered a simultaneous intraperitoneal injection of 1 ml ovalbumin and 0.5 ml of a 1% aqueous Evans Blue solution. The animals of the treated group are additionally orally administered 100 mg/kg of the test derivative, one hour prior to ovalbumin administration and then simultaneously with said ovalbumin administration. The intensity of the phenomenon thus induced is rated according to a scale from 1 to 5, according to the progress of the inflammatory syndrome. The determinations are effected after 2 hours and after 3 hours. Thus are determined the mean intensity of the edema and the percent decrease of the edema reaction.

[5] = test system: carrageenin-induced edema; experiment: Localized carrageenin-induced edema method; format: in vivo; settings: rats, 100 mg/kg oral one hour before, with, and 1 and 2.5 hours after carrageenin
Protocol: 0.1 ml of a 1% carrageenin solution is injected at time O in the metatarsal flexor muscles of the right hind limb of rats.
The animals of the treated group are additionally orally administered 100 mg/kg of the test derivative, respectively one hour prior to, and then simultaneously with the phlogogenic agent, and then one hour and 2.5 hours thereafter. The determinations effected with a ROCH micrometer at times 0, 1 hr, 2 hrs, 3 hrs and 5 hrs after carrageenin administration make it possible to determine the percent anti-inflammatory activity, as a function of time.

Red blood cells [6] = experiment: Anti-sludge in vitro, "preventive" treatment (protamine sulfate agglomeration of red blood cells); format: cell-based, rats; settings: for percent agglomerates formed by 5 RBC: controls 6 or 8; for percent agglomerates formed by 4 RBC: controls 9 or 8; for percent agglomerates formed by 3 RBC: controls 13 or 14; for percent agglomerates formed by 2 RBC: controls 17 or 16; for percent free red blood cells (size 1): controls 32 (n°3, 4, 6) or 30 (n°11, 12, 17)
Protocol: as §4

Structure (SMILES)	percent antalgia (mice) [%]	inhibition at 100 mg/kg [1] [%]	inhibition at 100 mg/kg [2] [%]	mean percent antalgia after 30 min. (mouse) [%]	mean percent antalgia after 1 hr (mouse) [%]	mean percent antalgia after 2 hrs (mouse) [%]	mean percent antalgia after 3 hrs (mouse) [%]	percent aggregates, size of agglomerates 4 (Red blood cells [3]) [%]	percent aggregates, size of agglomerates 3 (Red blood cells [3]) [%]	percent aggregates, size of agglomerates 2 (Red blood cells [3]) [%]	percent aggregates, size of agglomerates 1 (Red blood cells [3]) [%]	Percent decrease of the edema reaction After 2 hours [4] [%]	Percent decrease of the edema reaction After 3 hours [4] [%]	Percent anti-inflammatory activity after 1 hour [5] [%]	Percent anti-inflammatory activity after 2 hours [5] [%]	Percent anti-inflammatory activity After 3 hours [5] [%]	percent agglomerates formed by 5 RBC (Red blood cells [6]; 25 μg per tube) [%]	percent agglomerates formed by 4 RBC (Red blood cells [6]; 25 μg per tube) [%]	percent agglomerates formed by 3 RBC (Red blood cells [6]; 25 μg per tube) [%]	percent agglomerates formed by 2 RBC (Red blood cells [6]; 25 μg per tube) [%]	also measured
O=C1NCCc2ccsc21 [Derivative n°12, 7-Oxo-4,5,6,7-tetrahydro-thieno[2,3-c]pyridine]	77	90.6	62.7	81	78	73	67	1	3	14	82	53	64	42	54	61	1	2	15	21	percent free red blood cells (size 1) (Red blood cells [6]; 25 μg per tube): 61%; percent agglomerates formed by 5 RBC (Red blood cells [6]; 50 μg per tube): 2%; percent agglomerates formed by 4 RBC (Red blood cells [6]; 50 μg per tube): 2%; percent agglomerates formed by 3 RBC (Red blood cells [6]; 50 μg per tube): 12%; percent agglomerates formed by 2 RBC (Red blood cells [6]; 50 μg per tube): 20%; percent free red blood cells (size 1) (Red blood cells [6]; 50 μg per tube): 64%; percent agglomerates formed by 4 RBC (Red blood cells [6]; 100 μg per tube): 2%; percent agglomerates formed by 3 RBC (Red blood cells [6]; 100 μg per tube): 2%; percent agglomerates formed by 2 RBC (Red blood cells [6]; 100 μg per tube): 18%; percent free red blood cells (size 1) (Red blood cells [6]; 100 μg per tube): 78%; percent agglomerates formed by 4 RBC (Red blood cells [6]; 200 μg per tube): 1%; percent agglomerates formed by 3 RBC (Red blood cells [6]; 200 μg per tube): 1%; percent agglomerates formed by 2 RBC (Red blood cells [6]; 200 μg per tube): 9%; percent free red blood cells (size 1) (Red blood cells [6]; 200 μg per tube): 89%
CC(=O)N1CC(c2ccccc2)c2ccsc2C1=O (stereo not shown) [Derivative n°17, 4-Phenyl-6-acetyl-7-oxo-4,5,6,7-tetrahydro-thieno[2,3-c]-pyridine]	68	91.7	61.3	70	65	60	55	1	2	16	80	46	58	37	49	54	3	3	13	23	percent aggregates, size of agglomerates 5 (Red blood cells [3]; reference tests 8 or 9): 1%; percent free red blood cells (size 1) (Red blood cells [6]; 25 μg per tube): 58%; percent agglomerates formed by 5 RBC (Red blood cells [6]; 50 μg per tube): 1%; percent agglomerates formed by 4 RBC (Red blood cells [6]; 50 μg per tube): 2%; percent agglomerates formed by 3 RBC (Red blood cells [6]; 50 μg per tube): 4%; percent agglomerates formed by 2 RBC (Red blood cells [6]; 50 μg per tube): 28%; percent free red blood cells (size 1) (Red blood cells [6]; 50 μg per tube): 65%; percent agglomerates formed by 5 RBC (Red blood cells [6]; 100 μg per tube): 1%; percent agglomerates formed by 4 RBC (Red blood cells [6]; 100 μg per tube): 1%; percent agglomerates formed by 3 RBC (Red blood cells [6]; 100 μg per tube): 4%; percent agglomerates formed by 2 RBC (Red blood cells [6]; 100 μg per tube): 14%; percent free red blood cells (size 1) (Red blood cells [6]; 100 μg per tube): 80%; percent agglomerates formed by 4 RBC (Red blood cells [6]; 200 μg per tube): 1%; percent agglomerates formed by 3 RBC (Red blood cells [6]; 200 μg per tube): 2%; percent agglomerates formed by 2 RBC (Red blood cells [6]; 200 μg per tube): 9%; percent free red blood cells (size 1) (Red blood cells [6]; 200 μg per tube): 88%
